For one test, the target named is T1, rat-tail collagen type I (Rattus norvegicus, UniProt P02454+P02466).
T1 construct: purchased BD Bioscience; host or cells: rat tail (tissue-derived)
Nature of the test: Peptide-collagen binding by reduction of collagen fibril alignment (deuterium coupling constant). To be noted: collagen gelation under magnetic field in presence of peptide. An excerpt: High-resolution proton NMR spectroscopy is used to illustrate the behavior of the linker peptides […] (SEQ ID NO: 2 or gb1), […] (SEQ ID NO: 3 or trpzip6), […] (SEQ ID NO: 4 or trpzip5) and […] (SEQ ID NO: 5 or trpzip4) in aqueous solutions. The peptides were synthesized using standard Fmoc chemistry and purified by reverse-phase HPLC. Their identity was confirmed by mass-spectroscopy and NMR spectroscopy. For NMR studies, a volume of (400-X) μL of a peptide dissolved in pure water was mixed with 50 μL of a 10×PBS (phosphate-buffered saline) supplemented by sodium phosphate to a final concentration of 50 mM and with 50 μL of deuterated water (D2O) to form the reference sample (where X=0) and with a certain volume (X μL) of rat-tail collagen type I (at 3.6 to 4 mg/ml in 0.02 N acetic acid from BD Bioscience), (where X is adjusted to achieve the desired final concentration of collagen), with 50 μL of the 10× modified PBS and with 50 μL of deuterated water (D2O) to form the peptide-collagen complex. The pH value of the reference peptide samples was adjusted to match the pH of the final peptide-collagen complex in order to facilitate NMR spectral comparison.
The peptide-collagen solutions were subjected to gelation under magnetic field guidance (see Example 7) followed by the measurement of fibril alignment (Ma 2008) as a semi-quantitative indication of peptide-collagen binding. […]

Test [1] has as its system pooled human plasma. As to the kind of experiment: Prothrombin time (PT, thromboplastin) clotting assay. Particulars: for pIC50: 37° C., concentration that prolongs clotting time by 50%. It counts as biochemical. How it is done: (§1) Prothrombin (clotting) time (PT) or activated partial thromboplastin (clotting) time (APTT) assays were carried out at certain concentrations of the thrombin inhibitors of the present invention using pooled human plasma with addition of thromboplastin or activated partial thromboplastin to initiate clotting. The assays employed kits from Biopool International (Ventura, Calif., USA) or from Pacific Haemostasis (Middletown, Va., USA) using the procedures supplied by the manufacturer. Briefly, the stock solution of an inhibitor (with the concentration determined using UV-based OD determination, see Gill 1989) is diluted in a buffer of 20 mM HEPES and 150 mM NaCl at pH 7.4 (HBS) to a final volume of 50 μL, to which is added the reconstituted normal plasma (Product #CMS-176172 from Fisher Scientific) in an equal volume. This solution mixture is equilibrated at 37° C. for 2 minutes before 50 μL of the APTT-10XL solution (CMS-022927) is introduced forcibly to ensure proper mixing. This new mixture was incubated at 37° C. for another 5 minutes, which is followed by the addition of 50 μL of 0.02 M […] (Fisher Scientific CMS-022925) pre-warmed at 37° C. For the prothrombin time (PT) assay, an inhibitor is diluted in HBS to a final volume of 25 μL, to which is added the reconstituted control plasma (Fisher Scientific CMS-176172) in an equal volume. This solution mixture is equilibrated at 37° C. for 5 minutes before addition of 100 μL of the thromboplastin solution (CMS-176099) pre-warmed at 37° C. For APTT assays, inhibitory activities of the peptides are expressed as concentrations needed to achieve 50% of the maximum delay in clotting time (MCT50) as compared to the absence of thrombin inhibitors (Maraganore 1989). For PT assays, inhibitory activities are measured as the concentrations of the peptides that prolong the clotting time by 50% (IC50) of that of the normal control plasma (Maraganore 1990). PT and APTT assays were also carried out using slightly modified experimental procedures. Thus, 50 μL of a control plasma (Pacific Hemostasis) solution was added to 100 μL HBS (20 mM HEPES and 150 mM NaCl at pH 7.4) containing varied concentrations of the peptides of this invention. After incubation at 37° C. for 5 min, the mixture was added to 50 μL of the thromboplastin or activated partial thromboplastin reagent. Clotting of the plasma was monitored by change in absorbance at 420 nm using a SpectraMax™ plate reader.

Test [2] relates to pooled human plasma. Nature of the test: Activated partial thromboplastin time (APTT) clotting assay. To be noted: 37° C.; concentration for 50% of maximum delay in clotting time; read-out: MTC50 (APTT). The class given is biochemical. How it is done:
as §1

In test [3] the test system is human coagulation proteome. Nature of the test: Synthetic coagulation proteome assay (thrombin generation). It counts as biochemical. To be noted: 37° C. How it is done: This assay is carried out using an established protocol as described previously (Brummel-Ziedens 2008). Briefly, a pro-cofactor solution containing re-lipidated tissue factor (10 pM; molar ratio PCPS:TF=5000) was incubated with 4 μM PCPS in HBS (20 mM HEPES and 150 mM NaCl at pH 7.4) and 2 mM CaCl2 for 8 min at 37° C. Factor V (40 nM) and Factor VIII (1.4 nM) were then added to the mixture prior to initiation of the reaction to activate the protease zymogens in the blood coagulation cascade. The activation reaction was initiated by addition of the pro-cofactor solution to a zymogen solution containing prothrombin (2.8 μM), Factor VII (20 nM), Factor Vila (0.2 nM), FX (340 nM), Factor IX (180 nM), Factor XI (60 nM), TFPI (5 nM), antithrombin III (6.8 μM) […]
At selected time points after initiation of the reaction, 10 μL aliquots were withdrawn from the reaction mixture and quenched in 20 mM EDTA in HBS (pH 7.4) containing 0.2 mM Spectrozyme™ TH and assayed immediately for the proteolytic activity of thrombin. The hydrolysis of Spectrozyme™ TH was monitored by the change in absorbance at 405 nm using a SpectraMax™ plate reader (Molecular Devices Corp., Menlo Park, Calif., USA). Concentration of thrombin generated by the reaction was calculated from a standard curve prepared by serial dilutions of known concentrations of α-thrombin using the fibrinogen clotting assay (DiMaio 1990). Fibrinogen solution was freshly prepared by dissolving about 0.5% (w/v) fibrinogen in 50 mM Tris-HCl, 100 mM NaCl, 0.1% PEG-8000, pH 7.6 and filtering the resulting solution through a hydrophilic membrane of 0.45 μm polyvinylidene fluoride (PVDF) with low protein binding. The concentration of fibrinogen after filtration was determined by using the extinction coefficient of 15.0 for 1% fibrinogen at 280 nm. […] Thrombin-induced clotting of fibrinogen was followed at 25° C. by measuring the optical absorbance at 420 nm. The clotting time was obtained from extrapolation of the slope at the point of inflection to the zero absorbance baseline. […]

In test [4] the test system is FeCl3-induced arterial thrombosis (carotid artery). Nature of the test: FeCl3-induced arterial model of thrombosis in rats (time to occlusion). It counts as in vivo. Particulars: rat, single-bolus injection. How it is done:
Male Sprague-Dawley rats (250-310 g; Charles River Laboratories, St-Constant, QC, Canada) were acclimated for at least 3 days prior to the start of the study. Animals were housed in microisolator cages and were kept on a 12-hr light/dark cycle with constant temperature and humidity. Food and water were provided ad libitum. Various anti-thrombotic agents and peptides of this invention were dissolved in saline (0.9% sodium chloride) prior to use.
The FeCl3-induced arterial model of thrombosis in rats was also generated as described by Wang and Xu (Wang 2005) with some modifications (Couture 2011). Briefly, rats were anesthetized with a 2.5% isoflurane/oxygen mixture and placed on a heat source (35-37° C.). An incision was made over the right carotid artery, and a segment of the artery was exposed via blunt dissection. A Doppler flow probe (Model MA1PRB, Transonic System Inc., Ithaca, N.Y., USA) connected to a perivascular flow module (TS420, Transonic System Inc., Ithaca, N.Y., USA) was then attached to the carotid artery to monitor blood flow. Data were collected and analyzed using the MP100 Biopac™ Systems (Biopac Systems, Santa Barbara, Calif., USA), and the AcgKnowledge™ software (Biopac Systems, Santa Barbara, Calif., USA), respectively. Baseline blood flow was recorded for a minimum of 15 minutes until readings stabilized. Aquasonic 100 gel (Parker Laboratories, Inc., Fairfield, N.J., USA) was added to help conductivity and any fluid accumulating at the site of surgery was removed during data sampling without touching the probe. […] One minute after drug administration, a piece of filter paper (Gel Blot Paper, GB003, Whatman, Piscataway, N.J., USA; 7 mm diameter) saturated with 20% FeCl3 (EMD Chemicals Inc., Gibbstown, N.J., USA) was placed on the exposed surface of the carotid artery and incubated for 3.5 minutes. During the application of FeCl3, the neck region was covered with aluminum foil. At the end of the incubation period, the filter paper was removed and the exposed carotid was covered with a saline-soaked gauze. Time to occlusion was defined as the time from the application of FeCl3 until blood flow decreased to zero. […] Preparing and processing each animal took approximately 1 hr and 7 animals were treated each day. Control animals were always included when the other treatments were being administered. For this reason, the number of animals in the control group is higher than that of the treated-groups.
Statistical analysis was conducted using GraphPad™ Prism (GraphPad Software Inc., San Diego Calif., USA). Data were analyzed using one-way ANOVA with post-hoc Bonferroni correction for multiple comparisons. The relationship between thrombus weight and thrombus volume was determined by linear regression. […]

pEC50, pIC50: −log10 of the molar value. No end group written: not given here.

T1 sequence (P02454 152-1207): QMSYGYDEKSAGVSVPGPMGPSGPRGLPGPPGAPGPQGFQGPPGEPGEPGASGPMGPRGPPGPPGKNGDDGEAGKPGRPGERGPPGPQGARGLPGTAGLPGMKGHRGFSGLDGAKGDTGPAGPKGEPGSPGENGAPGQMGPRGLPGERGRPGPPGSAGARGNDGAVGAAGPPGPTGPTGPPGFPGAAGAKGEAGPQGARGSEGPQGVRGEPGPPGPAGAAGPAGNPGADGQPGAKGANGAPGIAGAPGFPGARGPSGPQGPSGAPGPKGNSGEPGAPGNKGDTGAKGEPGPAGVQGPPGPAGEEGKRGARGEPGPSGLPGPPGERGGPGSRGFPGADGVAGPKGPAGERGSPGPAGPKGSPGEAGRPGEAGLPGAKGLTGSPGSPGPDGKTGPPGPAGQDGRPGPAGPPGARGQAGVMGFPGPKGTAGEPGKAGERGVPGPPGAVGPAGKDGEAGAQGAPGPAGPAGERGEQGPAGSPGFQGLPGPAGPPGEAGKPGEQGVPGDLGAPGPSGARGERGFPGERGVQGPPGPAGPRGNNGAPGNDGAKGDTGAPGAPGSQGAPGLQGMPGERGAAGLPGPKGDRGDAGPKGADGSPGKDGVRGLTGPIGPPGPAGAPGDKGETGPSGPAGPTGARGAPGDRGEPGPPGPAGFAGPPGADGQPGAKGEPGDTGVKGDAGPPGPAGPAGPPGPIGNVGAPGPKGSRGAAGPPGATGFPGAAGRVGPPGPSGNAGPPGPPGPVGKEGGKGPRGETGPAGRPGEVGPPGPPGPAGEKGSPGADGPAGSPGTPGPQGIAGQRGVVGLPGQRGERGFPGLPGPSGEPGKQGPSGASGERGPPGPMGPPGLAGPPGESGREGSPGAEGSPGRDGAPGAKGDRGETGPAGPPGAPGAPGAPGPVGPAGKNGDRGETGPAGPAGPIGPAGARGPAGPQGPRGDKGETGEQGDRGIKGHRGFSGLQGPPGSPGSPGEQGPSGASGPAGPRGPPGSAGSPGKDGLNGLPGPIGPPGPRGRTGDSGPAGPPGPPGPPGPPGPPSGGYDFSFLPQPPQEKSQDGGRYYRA
T1 sequence (P02466 86-1125): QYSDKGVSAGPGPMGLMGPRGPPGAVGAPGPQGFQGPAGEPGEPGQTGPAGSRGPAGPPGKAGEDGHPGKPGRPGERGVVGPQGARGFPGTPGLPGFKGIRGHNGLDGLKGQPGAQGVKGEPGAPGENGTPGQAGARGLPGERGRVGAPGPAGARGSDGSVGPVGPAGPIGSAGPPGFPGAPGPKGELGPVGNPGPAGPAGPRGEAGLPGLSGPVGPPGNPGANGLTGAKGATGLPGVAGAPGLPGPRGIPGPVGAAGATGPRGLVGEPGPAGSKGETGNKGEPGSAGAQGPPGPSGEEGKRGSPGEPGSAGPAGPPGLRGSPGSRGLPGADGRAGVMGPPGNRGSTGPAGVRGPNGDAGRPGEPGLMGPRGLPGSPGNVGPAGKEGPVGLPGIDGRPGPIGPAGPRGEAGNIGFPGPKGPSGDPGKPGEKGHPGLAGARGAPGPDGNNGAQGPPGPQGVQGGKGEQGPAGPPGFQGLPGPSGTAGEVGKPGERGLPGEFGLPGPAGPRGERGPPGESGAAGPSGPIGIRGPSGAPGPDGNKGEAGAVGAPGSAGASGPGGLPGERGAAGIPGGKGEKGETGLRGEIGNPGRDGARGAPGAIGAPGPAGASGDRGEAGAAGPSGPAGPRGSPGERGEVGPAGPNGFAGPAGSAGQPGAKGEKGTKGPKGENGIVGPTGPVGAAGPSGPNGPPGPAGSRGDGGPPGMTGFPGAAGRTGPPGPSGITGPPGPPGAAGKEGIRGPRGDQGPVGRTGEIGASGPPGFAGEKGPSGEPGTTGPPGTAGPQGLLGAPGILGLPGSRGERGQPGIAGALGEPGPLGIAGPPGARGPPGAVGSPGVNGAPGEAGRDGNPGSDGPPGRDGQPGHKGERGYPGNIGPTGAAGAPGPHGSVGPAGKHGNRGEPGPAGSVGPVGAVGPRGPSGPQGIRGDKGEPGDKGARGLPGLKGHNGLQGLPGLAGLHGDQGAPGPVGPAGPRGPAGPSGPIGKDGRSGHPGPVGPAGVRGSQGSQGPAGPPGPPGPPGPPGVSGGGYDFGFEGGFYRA

Turning to “GEWTWDDATKTWTWTE (not fully specified (C-terminus)) [trpzip4]”, the “reduction of deuterium coupling constant (degree of collagen fibril alignment)” value with rat-tail collagen type I is “more than 1.0 Hz”.
For orientation: pIC50 means the negative decadic logarithm of the IC50, by convention in mol/L. `CC[C@H](C)[C@H](N)C(=O)N[C@@H](CCCNC(=N)N)C(=O)N[C@@H](Cc1ccccc1)C(=O)N[C@H](C(=O)N[C@@H](CC(=O)O)C(=O)NCC(=O)N[C@@H](CCC(=O)O)C(=O)NCC(=O)N[C@H](C(=O)NCC(=O)N[C@@H](CO)C(=O)NCC(=O)N[C@@H](CO)C(=O)NCC(=O)N[C@@H](CO)C(=O)NCC(=O)N[C@@H](CO)C(=O)NCC(=O)N[C@@H](CC(=O)O)C(=O)N[C@@H](Cc1ccccc1)C(=O)N[C@@H](CCC(=O)O)C(=O)N[C@@H](CCC(=O)O)C(=O)N[C@H](C(=O)N1CCC[C@H]1C(=O)N[C@@H](CCC(=O)O)C(=O)N[C@@H](CCC(=O)O)C(=O)N[C@@H](Cc1ccc(O)cc1)C(=O)N[C@@H](CC(C)C)C(=O)N[C@@H](CCC(N)=O)C(=O)O)[C@@H](C)CC)[C@@H](C)O)[C@@H](C)O` [MH2-GS]: the pIC50 in the test on pooled human plasma [1] was 6.70. The “anticoagulant effect in PT versus APTT assays” value in the test with pooled human plasma [1] (in words) is recorded as “more potent effect in delaying the prothrombin time as compared to APTT”. Besides, the pEC50 in the test with pooled human plasma [2] was 6.05. The “delay of thrombin burst / onset of thrombin generation” value in test [3] is reported as “clear dose-dependency for the delay of thrombin burst”.
Take `CC1CNc2c(cccc2S(=O)(=O)N[C@@H](CCCNC(=N)N)C(=O)N2CC[C@@H](C)C[C@@H]2C(=O)O)C1` (some centres unmarked) [Argatroban, reference compound]: in test [4], the “reduction of arterial occlusion” value is “consistently better efficacy”.
On to Bivalirudin [reference compound], for which, in the test with pooled human plasma [1], the pIC50 was 7.03. Besides, in test [4], the “reduction of arterial occlusion” value is “consistently better efficacy”.
